Literature values as cited in US8445278B2, “Process for producing decellularized biological tissues” (Medtronic, Inc., priority 2005, dated 2013).

Tested on: fresh rat hepatocytes

Q: For CCCCCCCCCCCCOS(=O)(=O)[O-].[Na+] [SDS, sodium dodecyl sulphate], which IC50 is on record?
A: 49 µM

Q: And the “concentration at which SDS is toxic” value?
A: ≥ 0.01 mM
